From patent US9932589B2, “EML4-ALK fusion gene” (Astellas Pharma Inc., priority 2006, dated 2018)

Columns and labels:
[1] = tested on: U-87MG cells; experiment: anchorage independent growth on spheroid plate, U-87MG cells expressing full length ALK; assay type: cell-based, human; details: siRNA transfected, 3 days; for U-87MG cell growth inhibition rate: spheroid plate
Method: (§1) The v1 expressing 3T3 cells (Example 6(1)) and one of the human glioma cells expressing the full length ALK polypeptide and not expressing EML4-ALK fusion polynucleotide endogenously, U-87 MG cells, were seeded to a 96 well spheroid plate (Sumilon Celltight Spheroid 96U, Sumitomo Bakelite Inc.) at 3000 cells per well in a medium containing 10% fetal bovine serum (DMEM for v1 expressing 3T3 cells and RPMI 1640 for U-87MG). […] At the same time, cells were counted before the addition of drugs (Day 0). Then, cells were cultured under 5% CO2, at 37° C. for 3 days, mixed with a reagent for measuring cell number (CellTiter-Glo™ Luminescent Cell Viability Assay; Promega Inc.) stirred for 20 minutes, and the measurements (day 3) were carried out using a luminometer (ML3000 microtiter plate luminometer; Dynatech Laboratories Inc.).

[2] = tested on: EML4-ALK fusion polynucleotide v1; experiment: siRNA inhibition of mRNA expression of EML4-ALK fusion polynucleotide v1 in v1 expressing 3T3 cells, quantitative PCR; assay type: cell-based, mouse; details: siRNA 20 nM, 72 hours, mRNA
Method: (§2) The v1 expressing 3T3 cells and U-87MG cells were seeded to 12 well plates (IWAKI; Asahi techno glass corp.) at 50,000 cells and 150,000 cells, respectively. Four hours later, using a transfection reagent (Lipofectamine RNAiMax; Invitrogen Inc.), siRNA-1 to siRNA-9 were prepared to a final concentration of 20 nM and transfected to cells according to the attached instruction. In addition, as a control no siRNA transfection samples were prepared. After 72 hours, the medium was removed, and total RNA was extracted using an RNA purification kit (RNeasy Mini Kit; QIAGEN Inc.) according to the attached instruction, and cDNA was prepared using a cDNA synthesizing kit (ThermoScript RT-PCR System; Invitrogen Inc.) according to the attached instruction.
(§3) The amount of expressed mRNA of the EML4-ALK fusion polynucleotide v1 in v1 expressing 3T3 cells and the amount of mRNA of the ALK gene in U-87MG cells were quantitated using a quantitative PCR reagent (Power SYBR Green PCR Master Mix; Applied Biosystems Inc.) The PCR reaction was carried out as follows: after 10 minutes incubation at 95° C., 45 cycles of 95° C. for 15 seconds and 60° C. for 60 seconds, and then one cycle of 95° C. for 15 seconds, 60° C. for 15 seconds and 95° C. for 15 seconds to complete the reaction. In addition, to calibrate the amount of expression, the amount of expression of the mouse cyclophilin B gene and the human GAPDH gene was similarly quantitated for v1 expressing 3T3 cells and U-87MG cells, respectively. Analyses were carried out using a sequence detector (ABI PRISM 7900 Sequence Detection System; Perkin-Elmer Applied Biosystems Inc.).
(§4) Oligo nucleotides consisting of the base sequences represented by SEQ ID NO: 44 and 48, SEQ ID NO: 50 and 56, SEQ ID NO: 44 and 48 and SEQ ID NO: 12 and 13 were used as the primer sets that specifically recognize the EML4-ALK fusion polynucleotide v1, the mouse cyclophilin B gene, the human ALK gene and the human GAPDH gene. Also, to obtain a standard curve to calculate the amount of respective mRNA, PCR was performed using human genomic DNA (Clontech) as a template for EML4-ALK fusion polynucleotide v1, human ALK and human GAPDH, and using mouse genomic DNA (Clontech) as a template for mouse cyclophilin B and the aforementioned primer sets under the same condition. Since a primer set corresponding to human ALK polynucleotide exon 29 was used to detect the EML4-ALK fusion polynucleotide v1, the standard curve can be obtained using human genomic DNA. The expression amount of the EML4-ALK fusion polynucleotide v1 and the human ALK gene in respective samples was calibrated with the expression amount of the mouse cyclophilin B gene and the human GAPDH gene to obtain the calibrated expression amount.

[3] = tested on: human ALK gene; experiment: siRNA inhibition of mRNA expression of ALK gene in U-87MG cells, quantitative PCR; assay type: cell-based; details: siRNA 20 nM, 72 hours, mRNA
Method: as §2, §3, §4

[4] = tested on: v1 expressing 3T3 cells; experiment: anchorage independent growth on spheroid plate, v1 expressing 3T3 cells; assay type: cell-based, mouse; details: siRNA transfected, spheroid plate, 3 days
Method: as §1

Row | Substance | U-87MG cell growth inhibition rate [1] [%] | Inhibition rate for EML4-ALK gene expression (v1 expressing 3T3 cells) [2] [%] | Inhibition rate for ALK gene expression (U-87 MG cells) [3] [%] | v1 expressing 3T3 cells growth inhibition rate [4] [%] | growth of U-87MG cells (in words) [1]
1 | siRNA-1: siRNA, sense strand SEQ ID NO: 111, antisense SEQ ID NO: 112; fusion area of EML4-ALK v1 (sense UGGGAAAGGACCUAAAGTGTA; antisense CACTTTAGGUCCUUUCCCAGG; chemistry not given here) | −13 | 80 | −12 |  | 
2 | siRNA-2: siRNA, sense strand SEQ ID NO: 113, antisense SEQ ID NO: 114; fusion area of EML4-ALK v1 (sense GGGAAAGGACCUAAAGTGTAC; antisense ACACTTUAGGUCCUUUCCCAG; chemistry not given here) | 25 | 66 | 11 |  | 
3 | siRNA-3: siRNA, sense strand SEQ ID NO: 115, antisense SEQ ID NO: 116; fusion area of EML4-ALK v1 (sense GGACCUAAAGUGUACCGCCGG; antisense GGCGGTACACUUUAGGUCCUU; chemistry not given here) | −21 | 62 | 10 |  | 
4 | siRNA-4: siRNA, sense strand SEQ ID NO: 117, antisense SEQ ID NO: 118; fusion area of EML4-ALK v1 (sense CCUAAAGUGUACCGCCGGAAG; antisense TCCGGCGGUACACUUUAGGUC; chemistry not given here) | −8 | 86 | 22 |  | 
5 | siRNA-5: siRNA, sense strand SEQ ID NO: 119, antisense SEQ ID NO: 120; fusion area of EML4-ALK v1 (sense AAAGUGUACCGCCGGAAGCAC; antisense GCTTCCGGCGGUACACUUUAG; chemistry not given here) | −13 | 76 | −22 |  | 
6 | siRNA-6: siRNA, sense strand SEQ ID NO: 121, antisense SEQ ID NO: 122; fusion area of EML4-ALK v1 (sense AAGUGUACCGCCGGAAGCACC; antisense TGCTTCCGGCGGUACACUUUA; chemistry not given here) | 16 | 69 | 15 | 97 | 
7 | siRNA-7: siRNA, sense strand SEQ ID NO: 123, antisense SEQ ID NO: 124; ALK area of EML4-ALK v1 (sense GGCCUGUAUACCGGATAATGA; antisense ATTATCCGGUAUACAGGCCCA; chemistry not given here) | 15 | 67 |  | 87 | did not inhibit the growth of U-87MG cells
8 | siRNA-8: siRNA, sense strand SEQ ID NO: 125, antisense SEQ ID NO: 126; ALK area of EML4-ALK v1 (sense GGCCUGUAUACCGGAUAAUGA; antisense AUUAUCCGGUAUACAGGCCCA; chemistry not given here) | −21 | 70 |  |  | did not inhibit the growth of U-87MG cells
